Experimental data from US11925644B2, “Crystalline salts of 5-methyl-(6S)-tetrahydrofolic acid and l-leucine ethyl ester” (MERCK PATENT GMBH, priority 2018, dated 2024).

Legend:
[1] = cited from earlier work; for aqueous solubility: room temperature
Water content (TG-FTIR) = type: physicochemical
Protocol: Thermogravimetric measurements were carried out with a Netzsch Thermo-Microbalance TG 209 coupled to a Bruker FTIR Spectrometer Vector 22 (sample pans with a pinhole, N2 atmosphere, heating rate 10 K/min).
About 420 mg of the solid material obtained in Example 2 was weighed into a filter centrifuge device and 2.0 mL of water is added followed by centrifugation under ambient conditions. This wash step is repeated twice more using 0.5 mL of water. The wet filter cake is then transferred to a fritted glass filter and air dried by drawing ambient air (about 22° C./about 21% r.h.) through the glass filter for about 10 minutes.
(§1) DVS measurements were performed as follows: The sample was placed on an aluminum holder on top of a microbalance and allowed to equilibrate at 50% RH before starting the pre-defined humidity program: • (1) two hours kept at 50% constant relative humidity (RH) then • (2) reduced to 0% RH at a rate of 5% per hour • (3) maintained RH at 0% for five hours • (4) raised RH to 75% at a rate of 5% per hour • (5) maintained RH at 75% for five hours • (6) reduced to 0% RH at a rate of 5% per hour • (7) maintained RH at 0% for five hours • (8) raised RH to 75% at a rate of 5% per hour • (9) reduced to 50% RH at a rate of 5% per hour • (10) maintained RH at 50% for about one hour

[2] = Hygroscopicity by dynamic water vapor sorption analysis (DVS); type: physicochemical; conditions: 0 to 75% r.h.
Protocol: DVS measurements are typically performed with an SPS11-100n “Sorptions Prüfsystem” from ProUmid (formerly “Projekt Messtechnik”), August-Nagel-Str. 23, 89079 Ulm (Germany).
as §1
The results are illustrated in FIG. 2.

[3] = purified/de-ionized water, room temperature, agitated one minute, gravimetric
Protocol: (§2) 2.00 mL of purified/de-ionized water (for instance water for chromatography) was added to the solid using an adjustable volumetric pipette. The mixture was vigorously agitated at room temperature for one minute. […] The solution was filtered by centrifugal filtration and 1.50 mL of the aqueous solution was transferred into a tared glass vial (about 10 mL volume). The water was evaporated in an air dryer at 40° C. for about 15 hours, then at 50° C. for about eight hours, subsequently drying was completed at 50° C. under vacuum (10 to 20 mbar) for about 13 hours. The solubility was determined by gravimetric evaluation of the solid residue.
as §2, with “The suspension” for “The solution”

Molecule: CN1c2c([nH]c(N)nc2=O)NC[C@@H]1CNc1ccc(C(=O)N[C@@H](CCC(=O)[O-])C(=O)[O-])cc1.[Ca+2] [calcium salt (Form III), calcium salt of 5-methyl-(6S)-tetrahydrofolic acid]
- aqueous solubility [1]: about 2.5 mg/ml

Molecule: CCOC(=O)[C@@H](N)CC(C)C.CN1c2c([nH]c(N)nc2=O)NC[C@@H]1CNc1ccc(C(=O)N[C@@H](CCC(=O)O)C(=O)O)cc1 [5-methyl-(6S)-tetrahydrofolic acid L-leucine ethyl ester 1:1 salt]
- water content (Water content (TG-FTIR); TG-FTIR analysis): about 0.7%

Molecule: 5-methyl-(6S)-tetrahydrofolic acid calcium salt
- change of water content within tested relative humidity range [2]: about 7.4%
- water content (Water content (TG-FTIR); method not stated): 12.4%
- kinetic solubility [3]: 9.0 mg of 5-methyl-(6S)-tetrahydrofolic acid per mL

Molecule: CN1c2c([nH]c(N)nc2=O)NC[C@@H]1CNc1ccc(C(=O)N[C@@H](CCC(=O)[O-])C(=O)[O-])cc1.[Ca+2] [Form I, calcium salt of 5-methyl-(6S)-tetrahydrofolic acid]
- aqueous solubility [1]: about 10 mg/ml

Molecule: CN1c2c(nc(N)[nH]c2=O)NC[C@@H]1CNc1ccc(C(=O)N[C@@H](CCC(=O)O)C(=O)O)cc1 [5-methyl-(6S)-tetrahydrofolic acid]
- solubility in water ([1]; water): poorly soluble in water
